Where a SMILES comes first, the peptide text is derived from it.
Target: ERAP2 (Homo sapiens, UniProt Q6P179)
Assay: biochemical
Procedure: Substrate hydrolysis was assessed by measuring the fluorescence of free AMC at 14-s intervals, at 380nm and 460 nm excitation and emission wavelengths, respectively, in a Fluostar Optima Multiwave Plate Reader (BMG Labtec, Ortenberg, Germany).

Sequence of ERAP2 (Q6P179 whole entry): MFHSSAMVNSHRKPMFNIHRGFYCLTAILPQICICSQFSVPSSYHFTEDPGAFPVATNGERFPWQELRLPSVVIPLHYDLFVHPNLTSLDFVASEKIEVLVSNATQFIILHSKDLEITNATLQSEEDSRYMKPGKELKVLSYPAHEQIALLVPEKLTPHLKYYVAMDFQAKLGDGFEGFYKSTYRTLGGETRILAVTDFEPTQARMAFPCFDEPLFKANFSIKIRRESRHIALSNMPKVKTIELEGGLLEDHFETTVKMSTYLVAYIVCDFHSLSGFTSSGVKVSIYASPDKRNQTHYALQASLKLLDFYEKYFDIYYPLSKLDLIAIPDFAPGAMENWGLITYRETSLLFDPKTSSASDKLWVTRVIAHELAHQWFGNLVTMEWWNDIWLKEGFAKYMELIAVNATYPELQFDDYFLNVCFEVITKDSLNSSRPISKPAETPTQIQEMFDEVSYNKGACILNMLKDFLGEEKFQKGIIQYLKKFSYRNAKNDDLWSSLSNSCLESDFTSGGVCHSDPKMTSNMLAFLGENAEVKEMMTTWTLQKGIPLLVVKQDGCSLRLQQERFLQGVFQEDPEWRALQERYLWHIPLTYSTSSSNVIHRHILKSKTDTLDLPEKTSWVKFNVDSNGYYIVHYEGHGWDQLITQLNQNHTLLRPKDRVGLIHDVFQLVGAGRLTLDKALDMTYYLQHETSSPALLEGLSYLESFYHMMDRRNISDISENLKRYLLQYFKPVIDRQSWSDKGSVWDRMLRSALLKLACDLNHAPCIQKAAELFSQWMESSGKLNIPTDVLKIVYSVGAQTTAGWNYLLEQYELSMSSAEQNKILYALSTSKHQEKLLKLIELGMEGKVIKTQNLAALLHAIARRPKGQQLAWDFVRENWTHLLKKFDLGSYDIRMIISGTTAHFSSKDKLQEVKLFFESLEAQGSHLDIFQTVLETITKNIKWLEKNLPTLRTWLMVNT

| IC50 [µM] | SMILES |
| --- | --- |
| 18.6 | CC[C@H](C)[C@H](NC(=O)[C@H](CCC(N)=O)NC(=O)[C@H](Cc1ccccc1)NC(=O)[C@@H](NC(=O)[C@H](CC(=O)O)NC(=O)CNC(=O)[C@H](Cc1ccc(O)cc1)NC(=O)[C@H](CCCNC(=N)N)NC(=O)[C@H](CCCNC(=N)N)NC(=O)[C@H](C)NC(=O)[C@@H](N)CC(C)C)C(C)C)C(=O)O (H-LARRYGDVFQI-OH) |
| 13.2 | CC(C)C[C@H](NC(=O)[C@H](CCCCN)NC(=O)[C@H](CC(=O)O)NC(=O)CNC(=O)[C@H](Cc1ccccc1)NC(=O)[C@H](CCCNC(=N)N)NC(=O)[C@H](CCCNC(=N)N)NC(=O)[C@H](CC(C)C)NC(=O)[C@@H](N)CCC(N)=O)C(=O)N[C@@H](CC(N)=O)C(=O)N[C@@H](Cc1ccccc1)C(=O)O (H-QLRRFGDKLNF-OH) |
| 2.88 | CC(C)C[C@H](NC(=O)[C@H](Cc1ccc(O)cc1)NC(=O)[C@@H]1CCCN1C(=O)[C@H](CO)NC(=O)[C@H](CCCCN)NC(=O)CNC(=O)[C@H](Cc1ccc(O)cc1)NC(=O)[C@H](CCCNC(=N)N)NC(=O)[C@H](C)NC(=O)[C@H](CC(C)C)NC(=O)[C@@H](N)CO)C(=O)N[C@@H](Cc1ccc(O)cc1)C(=O)O (H-SLARYGKSPYLY-OH) |

— publication PMC9774488, “The ER Aminopeptidases, ERAP1 and ERAP2, synergize to self-modulate their respective activities” (Frontiers in Immunology, 2022)
